Data from publication PMC11795093, “Investigation of the threonine metabolism of Echinococcus multilocularis: The threonine dehydrogenase as a potential drug target in alveolar echinococcosis” (International Journal for Parasitology: Drugs and Drug …, 2025).

Experiments:
recMmTDH [1] = molecular target: T1, recMmTDH (Mus musculus, UniProt Q8K3F7); test: NADH formation, absorbance at […] nm; format: biochemical; conditions: 0-16 mM L-Thr, 10 mM NAD+; pH 8.4; 37 °C
T1 construct: gene Tdh; predicted mitochondrial transfer peptide removed; E. coli BL21; synthetic gene, 991 bp insert

recMmTDH [2] = molecular target: T1, recMmTDH; test: NADH formation, absorbance at […] nm, relative to DMSO control; format: biochemical; conditions: 20 μM compound; 2 mM L-Thr, 3 mM NAD+; pH 8.4; 37 °C
recEmTDH = molecular target: T2, recEmTDH (Echinococcus multilocularis, UniProt A0A068Y017); test: as above; format: biochemical; conditions: read-out: residual activity at 20 μM
T2 construct: gene EmuJ_000511900; E. coli BL21; 979 bp insert from metacestode vesicle cDNA
T2 sequence (A0A068Y017 31-362): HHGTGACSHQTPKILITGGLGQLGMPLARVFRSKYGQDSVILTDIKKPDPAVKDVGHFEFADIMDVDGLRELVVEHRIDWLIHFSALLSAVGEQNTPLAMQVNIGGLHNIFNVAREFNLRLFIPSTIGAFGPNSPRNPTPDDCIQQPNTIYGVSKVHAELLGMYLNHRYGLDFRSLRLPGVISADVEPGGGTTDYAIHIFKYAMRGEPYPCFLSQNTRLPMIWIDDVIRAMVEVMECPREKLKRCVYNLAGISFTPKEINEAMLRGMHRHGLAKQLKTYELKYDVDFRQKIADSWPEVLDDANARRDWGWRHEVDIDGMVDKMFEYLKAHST

purified protein [3] = substrate: NC(=O)c1ccc[n+]([C@@H]2O[C@H](COP(=O)(O)OP(=O)(O)OC[C@H]3O[C@@H](n4cnc5c(N)ncnc54)[C@H](O)[C@@H]3O)[C@@H](O)[C@H]2O)c1; test: purified protein; format: biochemical, Echinococcus multilocularis; conditions: 16 mM L-Thr, 80 mM Tris-HCl pH 8.4, 37 °C, varied: cofactor
purified protein [4] = substrate: C[C@@H](O)[C@H](N)C(=O)O; test: purified protein; format: biochemical, Echinococcus multilocularis; conditions: 2 mM NAD+, 80 mM Tris-HCl pH 8.4, 37 °C

T1 sequence (Q8K3F7 46-373): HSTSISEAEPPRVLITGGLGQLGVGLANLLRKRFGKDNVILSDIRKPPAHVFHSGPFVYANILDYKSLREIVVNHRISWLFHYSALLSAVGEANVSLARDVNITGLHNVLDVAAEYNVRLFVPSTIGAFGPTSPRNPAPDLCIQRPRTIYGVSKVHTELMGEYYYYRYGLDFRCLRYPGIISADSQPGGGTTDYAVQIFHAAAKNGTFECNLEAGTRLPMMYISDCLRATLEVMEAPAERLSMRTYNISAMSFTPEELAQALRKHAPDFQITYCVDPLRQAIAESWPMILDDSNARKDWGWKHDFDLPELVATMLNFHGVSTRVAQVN

`C[C@@H](O)[C@H](N)C(=O)O` [L-Thr] was tested, and the “NADH formation, absorbance at 340 nm” value (recMmTDH [1]) was “we recombinantly expressed MmTDH (S5 File) and this protein was also enzymatically active”.

For `O=C(NCc1ccccc1)c1ccc2c(=O)n(-c3cccc(C(F)(F)F)c3)c(=S)[nH]c2c1` [QC1], the “residual activity at 20 μM” value (recMmTDH [2]) was “All tested compounds, except QC4, inhibited recMmTDH activity”.

`COc1ccc(NC(=O)c2ccc3c(=O)n(-c4cc(C(F)(F)F)ccc4Cl)c(=S)[nH]c3c2)cc1OC` [QC2] was tested, and the “residual activity at 20 μM” value (recMmTDH [2]) was “All tested compounds, except QC4, inhibited recMmTDH activity” and the remaining activity at 20 µM (recEmTDH) was 81.3 ± 1.8%.

With `COc1ccccc1CNC(=O)c1ccc2c(=O)n(-c3cccc(C(F)(F)F)c3)c(=S)[nH]c2c1` [QC3] the “residual activity at 20 μM” value (recMmTDH [2]) was “All tested compounds, except QC4, inhibited recMmTDH activity”.

For `O=C(NCCCN1CCCC1=O)c1ccc2c(=O)n(-c3cccc(C(F)(F)F)c3)c(=S)[nH]c2c1` [QC5], the “residual activity at 20 μM” value (recMmTDH [2]) was “All tested compounds, except QC4, inhibited recMmTDH activity”.

For `CN(Cc1ccccc1)C(=O)c1ccc2c(=O)n(-c3cccc(C(F)(F)F)c3)c(=S)[nH]c2c1` [QC6], the “residual activity at 20 μM” value (recMmTDH [2]) was “All tested compounds, except QC4, inhibited recMmTDH activity”.

In the case of `O=C(O)c1ccc2c(=O)n(-c3cccc(C(F)(F)F)c3)c(=S)[nH]c2c1` [QC7], the “residual activity at 20 μM” value (recMmTDH [2]) is reported as “All tested compounds, except QC4, inhibited recMmTDH activity”.

With `CCN(CC)C(=S)SSC(=S)N(CC)CC` [disulfiram] the “residual activity at 20 μM” value (recMmTDH [2]) was “All tested compounds, except QC4, inhibited recMmTDH activity” and the remaining activity at 20 µM (recEmTDH) was 41.2 ± 0.8%.

`O=c1c(O)c(-c2cc(O)c(O)c(O)c2)oc2cc(O)cc(O)c12` [myricetin] was tested, and the “residual activity at 20 μM” value (recMmTDH [2]) was “All tested compounds, except QC4, inhibited recMmTDH activity” and the remaining activity at 20 µM (recEmTDH) was 74.8 ± 1.7%.

In the case of `O=c1c(O)c(-c2ccc(O)c(O)c2)oc2cc(O)cc(O)c12` [quercetin], the “residual activity at 20 μM” value (recMmTDH [2]) is reported as “All tested compounds, except QC4, inhibited recMmTDH activity” and the remaining activity at 20 µM (recEmTDH) is reported as 85.5 ± 2.8%.

For `C[n+]1cc2c3c(ccc2c2ccc4cc5c(cc4c21)OCO5)OCO3` [sanguinarine], the “residual activity at 20 μM” value (recMmTDH [2]) was “All tested compounds, except QC4, inhibited recMmTDH activity” and the remaining activity at 20 µM (recEmTDH) was 64 ± 4%.

B1: recEmTDH (Echinococcus multilocularis) (protein)
chain: HHGTGACSHQTPKILITGGLGQLGMPLARVFRSKYGQDSVILTDIKKPDPAVKDVGHFEFADIMDVDGLRELVVEHRIDWLIHFSALLSAVGEQNTPLAMQVNIGGLHNIFNVAREFNLRLFIPSTIGAFGPNSPRNPTPDDCIQQPNTIYGVSKVHAELLGMYLNHRYGLDFRSLRLPGVISADVEPGGGTTDYAIHIFKYAMRGEPYPCFLSQNTRLPMIWIDDVIRAMVEVMECPREKLKRCVYNLAGISFTPKEINEAMLRGMHRHGLAKQLKTYELKYDVDFRQKIADSWPEVLDDANARRDWGWRHEVDIDGMVDKMFEYLKAHST
notes: E. coli BL21; 979 bp insert from metacestode vesicle cDNA
Work on B1 yielded a Km (purified protein [3]) of 0.8 ± 0.01 mM and a Km (purified protein [4]) of 8.8 ± 0.05 mM.
